Reference: patent publication US9795607B2, “Substituted pyrrolopyrimidine compounds, compositions thereof, and methods of treatment therewith” (Signal Pharmaceutical, LLC, priority 2013, dated 2017)
Where two headings read alike, the source gives them in different places.

Test system: Triple negative breast cancer cell line CAL51
Experiment: Cell Titer Glo proliferation assay, CAL51
Assay type: cell-based
Details: Homo sapiens, CAL-51, read-out: Act. Level
Experimental: Cell Titer Glo Proliferation Assay.
Triple negative breast cancer cell line CAL51 was purchased from DSMZ. […] Allcell lines were maintained in growth media consisting of 90% high glucose Dulbecco's Modified Eagle Medium or RPMI1640 (Invitrogen), 10% fetal bovine serum (Hyclone), and 2 mM L-glutamine (Invitrogen). […] After overnight culture, compound stock (30 mM) was diluted serially in DMSO, further diluted in growth media, and was added to each well as a 10× concentrated solution in a volume of 11 μL, mixed, and allowed to incubate with cells. The compound vehicle (DMSO) was maintained at a final concentration of 0.2% in all wells. After 72 h, 100 μL of Cell Titer Glo solution (Promega) was added to each well of the 96-well plate. The plate was placed on a shaker for 2 minutes. After 10 minutes incubation, the luminescence signal was detected with Envision microplate reader (Perkin Elmer).

[1] = CAL51 cell proliferation (Table 1)
[2] = CAL51 cell proliferation, Cell Titer Glo

| SMILES | IC50 [1] [nM] | IC50 [2] [nM] |
| --- | --- | --- |
| CNC(=O)c1ccc(Nc2nc(OC3CCCC3)c3c(-c4ccc(OC)cc4OC)c[nH]c3n2)c(OC)c1 [Example 320, 4-(4-(cyclopentyloxy)-5-(2,4-dimethoxyphenyl)-7H-pyrrolo[2,3-d]pyrimidin-2-ylamino)-3-methoxy-N-methylbenzamide] | – | 1000 to 10000 |
| COc1cc(C(=O)NC2CN(C)C2)ccc1Nc1nc(OC2CCOCC2)c2c(-c3ccc4nc(C)oc4c3)c[nH]c2n1 [Example 367, 3-methoxy-N-(1-methylazetidin-3-yl)4-(5-(2-methylbenzo[d]oxazol-6-yl)-4-(tetrahydro-2H-pyran-4-yloxy)-7H-pyrrolo[2,3-d]pyrimidin-2-ylamino)benzamide] | – | 100 to 400 |
| COc1cc(C(=O)NC2CN(C)C2)ccc1Nc1nc(OC2CCCC2)c2c(-c3ccc(-c4ncc[nH]4)cc3)c[nH]c2n1 [Example 361, 4-(5-(4-(1H-imidazol-2-yl)phenyl)-4-(cyclopentyloxy)-7H-pyrrolo[2,3-d]pyrimidin-2-ylamino)-3-methoxy-N-(1-methylazetidin-3-yl)benzamide] | – | 100 to 400 |
| CNC(=O)c1ccc(-c2c[nH]c3nc(Nc4ccc(C(=O)NC5COC5)cc4OC)nc(OC4COC4)c23)cc1 [Example 359, 3-methoxy-4-(5-(4-(methylcarbamoyl)phenyl)-4-(oxetan-3-yloxy)-7H-pyrrolo[2,3-d]pyrimidin-2-ylamino)-N-(oxetan-3-yl)benzamide] | – | 100 to 400 |
| Cc1nc2ccc(-c3c[nH]c4nc(Nc5cnn(C(C)C)c5Cl)nc(OC5CCCC5)c34)cc2o1 [Example 351, N-(5-chloro-1-isopropyl-1H-pyrazol-4-yl)-4-(cyclopentyloxy)-5-(2-methylbenzo[d]oxazol-6-yl)-7H-pyrrolo[2,3-d]pyrimidin-2-amine] | – | 100 to 400 |

Second part, the compound after the results:

| IC50 [1] [nM] | IC50 [2] [nM] | SMILES |
| --- | --- | --- |
| < 100 | – | Cc1nc2ccc(-c3c[nH]c4nc(Nc5ccc(C(=O)NCCO)cc5Cl)nc(OC5CCOCC5)c34)cc2o1 [Example 431, 3-chloro-N-(2-hydroxyethyl)-4-(5-(2-methylbenzo[d]oxazol-6-yl)-4-(tetrahydro-2H-pyran-4-yloxy)-7H-pyrrolo(2,3-d]pyrimidin-2-ylamino)benzamide] |
| – | 1000 to 10000 | COCCOc1nc(Nc2ccc(C(=O)NC3CN(C)C3)cc2OC)nc2[nH]cc(-c3ccc4nc(C)oc4c3)c12 [Example 386, 3-methoxy-4-(4-(2-methoxyethoxy)-5-(2-methylbenzo[d]oxazol-6-yl)-7H-pyrrolo[2,3-d]pyrimidin-2-ylamino)-N-(1-methylazetidin-3-yl)benzamide] |
| < 100 | – | COc1nc(Nc2ccc(C(=O)N(C)C)cc2C)nc2[nH]cc(-c3cc(C)nc(F)c3)c12 [Example 420, 4-(5-(2-fluoro-6-methylpyridin-4-yl)-4-methoxy-7H-pyrrolo[2,3-d]pyrimidin-2-ylamino)-N,N,3-trimethylbenzamide] |
| – | 400 to 1000 | CNC(=O)c1ccc(-c2c[nH]c3nc(Nc4ccc(C(=O)NC5CN(C)C5)cc4OC)nc(O[C@H]4CCOC4)c23)cc1 [Example 375, (S)-3-methoxy-N-(1-methylazetidin-3-yl)-4-(5-(4-(methylcarbamoyl)phenyl)-4-(tetrahydrofuran-3-yloxy)-7H-pyrrolo[2,3-d]pyrimidin-2-ylamino)benzamide] |
| < 100 | – | COc1cc(C(=O)N(C)C)ccc1Nc1nc(OC)c2c(-c3cc(C)nc(F)c3)c[nH]c2n1 [Example 418, 4-(5-(2-fluoro-6-methylpyridin-4-yl)-4-methoxy-7H-pyrrolo[2,3-d]pyrimidin-2-ylamino)-3-methoxy-N,N-dimethylbenzamide] |
| < 100 | – | CNC(=O)c1ccc(-c2c[nH]c3nc(Nc4ccc(C(=O)NC)cc4Cl)nc(OC)c23)cc1 [Example 428, 3-chloro-4-(4-methoxy-5-(4-(methylcarbamoyl)phenyl)-7H-pyrrolo[2,3-d]pyrimidin-2-ylamino)-N-methylbenzamide] |
| – | 100 to 400 | COc1ccc(-c2c[nH]c3nc(Nc4ccc(C(=O)N(C)C)cc4C)nc(OC)c23)cc1 [Example 391, 4-(4-methoxy-5-(4-methoxyphenyl)-7H-pyrrolo[2,3-d]pyrimidin-2-ylamino)-N,N,3-trimethylbenzamide] |
